Measured values reported in ChEMBL document CHEMBL5505958, “Optimization of sequence and chiral content enhances therapeutic potential of tilapia piscidin peptides” (Eur J Med Chem, 2024).
≈ marks a conversion by molar mass, not a printed value. Calls of active or inactive are those of the source. The rule behind the calls is not given here.

Key:
Escherichia coli [1] = test: Antibacterial activity against Escherichia coli 10675 assessed as inhibition of bacterial growth incubated for 16 to 20 hrs in presence of human serum; format: functional; details: time 16-20 hrs
Klebsiella pneumoniae [2] = test: Bactericidal activity against Klebsiella pneumoniae BAA 2473 assessed as inhibition of bacterial growth in presence of 1 microg/ml of chymotrypsin (reference value: 1.56 to 3.13 microM); format: functional
Klebsiella pneumoniae [3] = test: Antibacterial activity against Klebsiella pneumoniae BAA 2473 assessed as inhibition of bacterial growth in presence of 0.1 microg/ml of trypsin (reference value: 1.56 to 3.13 microM); format: functional
Vibrio vulnificus [4] = test: Bactericidal activity against Vibrio vulnificus 204 assessed as inhibition of bacterial growth incubated for 16 to 20 hrs in presence of human serum; format: functional; details: time 16-20 hrs
Lipopolysaccharide (LPS) = test: Displacement of BODIPY-TR-cadaverine from Klebsiella pneumoniae BAA 2473 lipopolysaccharide (LPS) assessed as increase in fluorescence intensity at 3.125 uM by fluorescence spectrophotometric analysis; format: subcellular
Rhizopus arrhizus [5] = test: Antifungal activity against Rhizopus oryzae 34550 assessed as inhibition of fungal growth incubated for 16 to 20 hrs in presence of human serum; format: functional; details: time 16-20 hrs
Klebsiella pneumoniae [6] = test: Bactericidal activity against Klebsiella pneumoniae BAA 2473 assessed as inhibition of bacterial growth in presence of 1 microg/ml of trypsin (reference value: 1.56 to 3.13 microM); format: functional
Salmonella enterica [7] = test: Antibacterial activity against Salmonella enterica 15455 assessed as inhibition of bacterial growth incubated for 16 to 20 hrs in presence of human serum; format: functional; details: time 16-20 hrs
Klebsiella aerogenes = test: Bactericidal activity against Enterobacter aerogenes 15630 assessed as inhibition of bacterial growth incubated for 16 to 20 hrs; format: functional; details: time 16-20 hrs
Yersinia enterocolitica [8] = test: Antibacterial activity against Yersinia enterocolitica 13999 assessed as inhibition of bacterial growth incubated for 16 to 20 hrs; format: functional; details: time 16-20 hrs
Klebsiella pneumoniae [9] = test: Antibacterial activity against Klebsiella pneumoniae 10692 assessed as inhibition of bacterial growth incubated for 16 to 20 hrs; format: functional; details: time 16-20 hrs
Enterococcus faecium [10] = test: Bactericidal activity against Enterococcus faecium 10067 assessed as inhibition of bacterial growth incubated for 16 to 20 hrs in presence of human serum; format: functional; details: time 16-20 hrs
Acinetobacter baumannii = test: Antibacterial activity against Acinetobacter baumannii 10591 assessed as inhibition of bacterial growth incubated for 16 to 20 hrs; format: functional; details: time 16-20 hrs
Klebsiella pneumoniae [11] = test: Antibacterial activity against Klebsiella pneumoniae TL 297 assessed as inhibition of bacterial growth incubated for 16 to 20 hrs in presence of human serum; format: functional; details: time 16-20 hrs
Klebsiella pneumoniae [12] = test: Bactericidal activity against Klebsiella pneumoniae BAA 2473 assessed as inhibition of bacterial growth in presence of 10 microg/ml of proteinase K (reference value: 1.56 to 3.13 microM); format: functional
Klebsiella pneumoniae [13] = test: Bactericidal activity against Klebsiella pneumoniae BAA 2473 assessed as inhibition of bacterial growth in presence of 0.1 microg/ml of trypsin (reference value: 1.56 to 3.13 microM); format: functional
Salmonella typhimurium [14] = test: Bactericidal activity against Salmonella typhimurium DT104 assessed as inhibition of bacterial growth incubated for 16 to 20 hrs; format: functional, Salmonella enterica subsp. enterica serovar Typhimurium; details: Salmonella enterica, time 16-20 hrs
Klebsiella pneumoniae [15] = test: Antibacterial activity against Klebsiella pneumoniae BAA 2473 assessed as inhibition of bacterial growth in presence of 1 microg/ml of chymotrypsin (reference value: 1.56 to 3.13 microM); format: functional
Staphylococcus aureus = test: Antibacterial activity against Staphylococcus aureus 10780 assessed as inhibition of bacterial growth incubated for 16 to 20 hrs in presence of human serum; format: functional; details: time 16-20 hrs
Cell membrane = test: Induction of outer cell membrane permeabilization in Klebsiella pneumoniae BAA 2473 assessed as increase in fluorescence intensity by NPN uptake assay; format: cell membranes
Klebsiella pneumoniae [16] = test: Bactericidal activity against Klebsiella pneumoniae TL 297 assessed as inhibition of bacterial growth incubated for 16 to 20 hrs in presence of human serum; format: functional; details: time 16-20 hrs
Salmonella enterica [17] = test: Bactericidal activity against Salmonella enterica 15455 assessed as inhibition of bacterial growth incubated for 16 to 20 hrs in presence of human serum; format: functional; details: time 16-20 hrs
Klebsiella pneumoniae [18] = test: Antibacterial activity against Klebsiella pneumoniae BAA 2473 assessed as inhibition of bacterial growth in presence of 0.1 microg/ml of pepsin (reference value: 1.56 to 3.13 microM); format: functional
Enterococcus faecium [19] = test: Antibacterial activity against Enterococcus faecium 10067 assessed as inhibition of bacterial growth incubated for 16 to 20 hrs in presence of human serum; format: functional; details: time 16-20 hrs
Klebsiella pneumoniae [20] = test: Bactericidal activity against Klebsiella pneumoniae BAA 2473 assessed as inhibition of bacterial growth in presence of 10 microg/ml of pepsin (reference value: 1.56 to 3.13 microM); format: functional
Enterococcus faecium [21] = test: Bactericidal activity against Enterococcus faecium 10067 assessed as inhibition of bacterial growth incubated for 16 to 20 hrs; format: functional; details: time 16-20 hrs
Rhizopus arrhizus [22] = test: Fungicidal activity against Rhizopus oryzae 34550 assessed as inhibition of fungal growth incubated for 72 hrs; format: functional
Escherichia coli [23] = test: Bactericidal activity against Escherichia coli 10675 assessed as inhibition of bacterial growth incubated for 16 to 20 hrs; format: functional; details: time 16-20 hrs
Klebsiella pneumoniae [24] = test: Antibacterial activity against Klebsiella pneumoniae BAA 2473 assessed as inhibition of bacterial growth in presence of 10 microg/ml of trypsin (reference value: 1.56 to 3.13 microM); format: functional
Escherichia coli [25] = test: Antibacterial activity against Escherichia coli 10675 assessed as inhibition of bacterial growth incubated for 16 to 20 hrs; format: functional; details: time 16-20 hrs
Vibrio vulnificus [26] = test: Antibacterial activity against Vibrio vulnificus 204 assessed as inhibition of bacterial growth incubated for 16 to 20 hrs in presence of human serum; format: functional; details: time 16-20 hrs
Rhizopus arrhizus [27] = test: Antifungal activity against Rhizopus oryzae 34550 assessed as inhibition of fungal growth incubated for 16 to 20 hrs; format: functional; details: time 16-20 hrs
Klebsiella pneumoniae [28] = test: Bactericidal activity against Klebsiella pneumoniae BAA 2473 assessed as inhibition of bacterial growth in presence of 1 microg/ml of pepsin (reference value: 1.56 to 3.13 microM); format: functional
Yersinia enterocolitica [29] = test: Bactericidal activity against Yersinia enterocolitica 13999 assessed as inhibition of bacterial growth incubated for 16 to 20 hrs; format: functional; details: time 16-20 hrs
Salmonella typhimurium [30] = test: Antibacterial activity against Salmonella typhimurium DT104 assessed as inhibition of bacterial growth incubated for 16 to 20 hrs in presence of human serum; format: functional, Salmonella enterica subsp. enterica serovar Typhimurium; details: Salmonella enterica, time 16-20 hrs
Enterococcus faecalis = test: Bactericidal activity against Enterococcus faecalis 10066 assessed as inhibition of bacterial growth incubated for 16 to 20 hrs; format: functional; details: time 16-20 hrs
Klebsiella pneumoniae [31] = test: Bactericidal activity against Klebsiella pneumoniae BAA 2473 assessed as inhibition of bacterial growth in presence of 0.1 microg/ml of chymotrypsin (reference value: 1.56 to 3.13 microM); format: functional
Salmonella enterica [32] = test: Bactericidal activity against Salmonella enterica 15455 assessed as inhibition of bacterial growth incubated for 16 to 20 hrs; format: functional; details: time 16-20 hrs
Klebsiella pneumoniae [33] = test: Bactericidal activity against Klebsiella pneumoniae BAA 2473 assessed as inhibition of bacterial growth in presence of 1 microg/ml of proteinase K (reference value: 1.56 to 3.13 microM); format: functional
Klebsiella pneumoniae [34] = test: Antibacterial activity against Klebsiella pneumoniae BAA 2473 assessed as inhibition of bacterial growth in presence of 1 microg/ml of pepsin (reference value: 1.56 to 3.13 microM); format: functional

CC(C)C[C@H](NC(=O)[C@H](CCCCN)NC(=O)[C@@H](CCCCN)NC(=O)[C@H](CC(C)C)NC(=O)[C@@H](N)Cc1ccccc1)C(=O)N[C@H](CC(C)C)C(=O)N[C@@H](CCCCN)C(=O)N[C@@H](C)C(=O)N[C@H](CC(C)C)C(=O)N[C@@H](Cc1ccccc1)C(=O)N[C@@H](CO)C(=O)N[C@H](C)C(=O)N1CCC[C@H]1C(=O)N[C@@H](CCCCN)C(=O)N[C@H](C)C(=O)N[C@@H](CC(C)C)C(=O)N[C@@H](CCCCN)C(=O)N[C@H](CCCNC(=N)N)C(=O)N[C@@H](CC(C)C)C(=O)N[C@@H](CC(C)C)C(=O)N[C@H](CCCNC(=N)N)C(=O)N[C@@H](CCCNC(=N)N)C(=O)N[C@@H](CCCNC(=N)N)C(=O)N[C@H](CCCNC(=N)N)C(=O)N[C@@H](CCCNC(=N)N)C(=O)O gave an MIC (Escherichia coli [1]) of 0.78 µM, an MBC (Klebsiella pneumoniae [2]) of 0.78 µM and an MIC (Klebsiella pneumoniae [3]) of 0.78 µM. The MBC (Vibrio vulnificus [4]) was 12.5 µM, the Activity (Lipopolysaccharide (LPS)) was 100% and the MIC (Rhizopus arrhizus [5]) was 3.13 µM. It also gave an MBC (Klebsiella pneumoniae [6]) of 1.56 µM, an MIC (Salmonella enterica [7]) of 0.78 µM and an MBC (Klebsiella aerogenes) of 6.25 µM (≈ 19.2 µg/mL). For the same compound, the MIC (Yersinia enterocolitica [8]) was 3.13 µM (≈ 9.64 µg/mL), the MIC (Klebsiella pneumoniae [9]) was 3.13 µM (≈ 9.64 µg/mL) and the MBC (Enterococcus faecium [10]) was 100 µM. It also gave an MIC (Acinetobacter baumannii) of 3.13 µM (≈ 9.64 µg/mL), an MIC (Klebsiella pneumoniae [11]) of 1.56 µM and an MBC (Klebsiella pneumoniae [12]) of 0.78 µM. For the same compound, the MBC (Klebsiella pneumoniae [13]) was 0.78 µM, the MBC (Salmonella typhimurium [14]) was 6.25 µM (≈ 19.2 µg/mL) and the MIC (Klebsiella pneumoniae [15]) was 0.78 µM. The MIC (Staphylococcus aureus) was 6.25 µM, the Activity (Cell membrane) was “Active” and the MBC (Klebsiella pneumoniae [16]) was 1.56 µM. The MBC (Salmonella enterica [17]) was 0.78 µM, the MIC (Klebsiella pneumoniae [18]) was 0.78 µM and the MIC (Enterococcus faecium [19]) was 100 µM. For the same compound, the MBC (Klebsiella pneumoniae [20]) was 0.78 µM, the MBC (Enterococcus faecium [21]) was 12.5 µM (≈ 38.5 µg/mL) and the MFC (Rhizopus arrhizus [22]) was 0.78 µM (≈ 2.4 µg/mL). For the same compound, the MBC (Escherichia coli [23]) was 3.13 µM (≈ 9.64 µg/mL), the MIC (Klebsiella pneumoniae [24]) was 1.56 µM and the MIC (Escherichia coli [25]) was 1.56 µM (≈ 4.8 µg/mL). It also gave an MIC (Vibrio vulnificus [26]) of 12.5 µM, an MIC (Rhizopus arrhizus [27]) of 0.78 µM (≈ 2.4 µg/mL) and an MBC (Klebsiella pneumoniae [28]) of 0.78 µM. For the same compound, the MBC (Yersinia enterocolitica [29]) was 3.13 µM (≈ 9.64 µg/mL), the MIC (Salmonella typhimurium [30]) was 3.13 µM and the MBC (Enterococcus faecalis) was greater than 12.5 µM. The MBC (Klebsiella pneumoniae [31]) was 0.78 µM, the MBC (Salmonella enterica [32]) was 6.25 µM (≈ 19.2 µg/mL) and the MBC (Klebsiella pneumoniae [33]) was 1.56 µM. The MIC (Klebsiella pneumoniae [34]) was 0.78 µM.
